From a melting point compilation (Tetko et al.; mined from patent text by program, amines drawn as free bases though some values may be those of a salt)

First: CC(C)CC(=O)c1cn(C)cc(-c2cccc(C(F)(F)F)c2)c1=O
Second: CC(C)CC(=O)Nc1cccc(-c2ccnc3c(-c4cccc(C(F)(F)F)c4)cnn23)c1
The melting point of the first is lower: 110 to 112 °C for the first, 170 to 173 °C for the second.

First: COC(=O)c1cnoc1-c1ccc(F)cc1
Second: COc1ccc(-c2ccc(F)cc2F)cc1
The melting point of the first is higher: 92 to 93 °C for the first, 73 to 76 °C for the second.

Compared with CC(=O)C(=Cc1cc(O)c(O)c(Cl)c1)C(C)=O, CC(=O)Nc1c(C#N)c(OC(C)=O)c(C(C)=O)n1C is lower in melting point: 167 to 171 °C for the first, 140 to 141 °C for the second.

Compared with CN(Cc1cc(C(=O)O)ccc1N)C1CCCCC1, Cc1cccc(C(=O)OC2CCCCC2=O)c1 (centres undefined) is lower in melting point: 200 to 205 °C for the first, 73 to 74 °C for the second.

First: COC(=O)C#CC(=O)c1ccccc1
Second: CCCC(=O)c1c[nH]c2cc(COC(=O)c3ccccc3)ccc2c1=O
The melting point of the first is lower: 31 to 35 °C for the first, 228 to 231 °C for the second.

Compared with ON=Cc1ccc(-c2ccc(O)cc2)c2sccc12, Cc1ccccc1-n1c(C=Cc2ccccc2F)nc2ccsc2c1=O is lower in melting point: 230 to 231 °C for the first, 220 to 221 °C for the second.

First: Cc1ccnc2c1C(=O)CC(c1sc(Cl)cc1Cl)C2 (centres undefined)
Second: CCONC(=O)c1cc(-c2ncc(C(F)(F)F)cc2Cl)ccc1Cl
The melting point of the first is lower: 109 to 111 °C for the first, 162 to 163 °C for the second.

First: CCCCN(CCCC)CCCOc1ccc(-c2cn3cccc(C)c3n2)c(C)c1
Second: CCCCc1nc2c(N)nc3ccc(OCc4ccccc4)cc3c2n1CCCCNS(=O)(=O)c1ccccc1
The melting point of the first is lower: 78 to 81 °C for the first, 204 to 205 °C for the second.

First: O=C1C(=Cc2cccs2)CCc2cc(OCCn3ccnc3)ccc21
Second: Cc1cc(-c2cc3cc(OCCNC[C@H](O)COc4ccccc4F)ccc3o2)no1
The melting point of the first is higher: 137 to 138 °C for the first, 118 to 121 °C for the second.

First: COC(=O)c1cccc2c1c(C(C[N+](=O)[O-])C[N+](=O)[O-])cn2C
Second: O=C(O)CCCCN1C(=O)c2cccc([N+](=O)[O-])c2C1=O
The melting point of the first is lower: 142 to 145 °C for the first, 158 to 160 °C for the second.

Compared with CCOc1nn(-c2ccc(C(F)(F)F)cn2)cc1CCCOc1cc(CC(=O)O)cc(OC)c1, CCCc1ccccc1OCC(O)COc1cccc2oc(C(=O)O)cc(=O)c12 (centres undefined) is higher in melting point: 125 to 126 °C for the first, 168 to 170 °C for the second.

Compared with CC(C)c1cccc(C(C)C)c1NC(=O)[C@H](CCc1ccccc1)NC(=O)OC(C)(C)C, Cc1cccc(NC(=O)NC(C)C(=O)N(c2ccccc2)c2ccccc2)c1 (racemic) is lower in melting point: 193 to 197 °C for the first, 82 °C for the second.

First: O=C1C2CCC(N1c1cccs1)n1c(=O)n(-c3ccccc3)c(=O)n12 (centres undefined)
Second: O=C1C(Cl)=C(c2ccccc2)C(=O)N1Nc1ccccc1
The melting point of the first is higher: 238 to 244 °C for the first, 144 to 146 °C for the second.

First: Cc1cc(-c2nc3cccnn3c2-c2ccnc(NC(=O)NC3CCCCC3)c2)ccc1F
Second: c1ccc(-c2nc3ccc(N4CCC(N5CCCC5)CC4)nn3c2-c2ccncc2)cc1
The melting point of the first is higher: 229 to 230 °C for the first, 165 to 166 °C for the second.

First: Nc1cc(S(=O)(=O)C(F)(F)F)cc(Cl)c1N
Second: COCCNc1c(S(=O)(=O)C(F)(F)F)c(C#N)nn1-c1c(Cl)cc(C(F)(F)F)cc1Cl
The melting point of the first is lower: 143 to 145 °C for the first, 164 °C for the second.

First: CC(=O)O[C@H]1CC[C@H](CCCCCCC(=O)O)CC1
Second: CC(=O)NC1CCC(CNc2nc3c(s2)CCOc2ccccc2-3)CC1 (centres undefined)
The melting point of the first is lower: 66 to 68 °C for the first, 69 to 72 °C for the second.

First: N#Cc1ccccc1Oc1ccc(-c2cn(C3CCOCC3)c3ncnc(N)c23)cc1
Second: CCC(Oc1ccc(-c2ccc(C#N)c(Cl)c2)cc1)C(O)CCc1cccnc1 (centres undefined)
The melting point of the first is higher: 125 °C for the first, 99 to 100 °C for the second.

First: O=C(Nc1ccc2cn[nH]c2c1)C(=O)N1CCC(Cc2ccccc2)CC1
Second: O=C(Nc1ccccc1S(=O)(=O)NCC1CCCCC1)N[C@@H](Cc1ccc(NC(=O)c2c(Cl)cncc2Cl)cc1)C(=O)O
The melting point of the first is lower: 160 to 164 °C for the first, 214 °C for the second.

Going from CC1(C)COP(=O)(OC(C#N)c2cccc(Oc3ccccc3)c2)OC1 (centres undefined) to CCCc1c(OCCCOc2ccccc2)ccc2c1OC(CCC(=O)O)(CCC(=O)O)CC2=O, the melting point rises from 140 °C to 162 °C.

Compared with NC(=NO)c1c(C(F)(F)F)ccc(F)c1F, Cc1cc(-c2ccc(C(F)(F)F)cc2)nc(S(C)(=O)=O)n1 is lower in melting point: 114 to 115 °C for the first, 94 to 97 °C for the second.

Compared with NS(=O)(=O)c1ccc(-c2cccc(-c3nc(-c4ccc(Cl)s4)cc(C(F)(F)F)n3)c2)s1, CCc1coc2c(-c3ccc(F)cc3)c(-c3ccc(S(N)(=O)=O)cc3)nn12 is higher in melting point: 233 °C for the first, 234 to 236 °C for the second.

First: CCOC(=O)C=Cc1c(N)nc(C)c(NC(C)=O)c1C
Second: COCC(C)N(C(=O)CCl)c1c(C)cccc1C (centres undefined)
The melting point of the first is higher: 204 to 205 °C for the first, 44 to 46 °C for the second.

First: COc1ccc(NC(=O)c2ccccc2NS(=O)(=O)c2ccc(C)cc2)cc1Cl
Second: CCc1cc(-c2ccc(Cl)cc2)nc2c(C(=O)Nc3cccc(S(=O)(=O)NC(C)(C)CO)c3)cnn12
The melting point of the first is lower: 181 to 182 °C for the first, 239 to 240 °C for the second.

Compared with NC(=O)N(O)Cc1ccc(Br)cc1, CC12CCC(C(=O)Nc3ccc(CC#N)cc3)(OC1=O)C2(C)C (centres undefined) is lower in melting point: 157 to 159 °C for the first, 147 to 152 °C for the second.

Compared with CCN(c1ccc(Cl)cc1[N+](=O)[O-])S(=O)(=O)c1ccc(C)cc1, Cc1ccc(S(=O)(=O)N2CC3=CC(=O)CC3C2)cc1 (centres undefined) is higher in melting point: 132 to 134 °C for the first, 147 to 149 °C for the second.

First: Oc1ccc2c(c1)C13CCCCC1N(C2)N(CC1CC1)CC3 (single isomer, unassigned; (+))
Second: S=C1NC(c2ccc(Cl)cc2)c2ccccc2C1CCN1CCOCC1 (centres undefined)
The melting point of the first is lower: 151 to 153 °C for the first, 228 to 231 °C for the second.

Compared with CN(C)C(=O)N1C[C@@H](O)[C@H](Oc2ccc(Cl)cc2)C1 (relative stereo), CC(C)c1ccc(-c2noc3c2CCC(C(=O)O)CC3)cc1 (centres undefined) is lower in melting point: 137 to 142 °C for the first, 109 to 111 °C for the second.

Compared with CS(=O)(=O)Nc1ccc(NS(C)(=O)=O)c(S)c1, CNc1nc(NS(=O)(=O)c2ccc(N)cc2)cc(N(C)C)n1 is higher in melting point: 174 to 176 °C for the first, over 300 °C for the second.

First: CNC(=O)N(C)C1=NN(C(=O)C(C)(C)C)C(C)S1 (centres undefined)
Second: CCNC(=O)c1sc(SC)cc1[Si](C)(C)C
The melting point of the first is higher: 168 to 169 °C for the first, 58 to 61 °C for the second.

First: CCOc1cc(CO)ccc1OCCBr
Second: COc1cccc(CBr)c1CBr
The melting point of the first is lower: 51 to 53 °C for the first, 78 to 79 °C for the second.

First: C[C@H](Cn1ncnn1)n1cnc2cc3c(=O)n([C@H](C)Cn4cnnn4)nnc3cc2c1=O
Second: COc1cc2[nH]c(=O)n(CCCS)c(=O)c2cc1OC
The melting point of the first is lower: 168 to 170 °C for the first, 236 °C for the second.

First: O=C1NC(=O)C(Cc2ccc(OCCON=Cc3cnc4ccccc4c3)cc2)S1 (centres undefined)
Second: O=C(O)CCCOc1cccc(CNC(=O)c2nc3ccccc3c(=O)[nH]2)c1
The melting point of the first is lower: 182 to 184 °C for the first, 259 to 260 °C for the second.

First: COc1ccc(-c2ccc(Cl)nn2)c(OCC2CO2)c1 (centres undefined)
Second: COC(=O)COc1ccc(C2C(=O)Oc3c2cc(C(C)(C)C)cc3C(C)(C)C)cc1 (centres undefined)
The melting point of the first is lower: 111 to 112 °C for the first, 115 to 117 °C for the second.

First: CC(C#N)c1ccc2nc(N)sc2c1 (centres undefined)
Second: Nc1c2c(nc3ccc(F)cc13)CCCC2
The melting point of the first is lower: 165 °C for the first, 229 to 230 °C for the second.

Compared with O=C1Nc2ccc(Br)cc2C(c2ccccc2F)=NC1O (centres undefined), COc1cccc(Nc2cccc3c2C(=O)N(C2CCC(=O)NC2=O)C3=O)c1 (centres undefined) is higher in melting point: 196 to 198 °C for the first, 210 to 212 °C for the second.

Compared with CCN(CC)c1nc(Cl)c([N+](=O)[O-])s1, CN(C)C(=O)c1ncn2c(=O)n(CCCl)nnc12 is higher in melting point: 85 °C for the first, 114 to 116 °C for the second.

First: NC(=O)C1CCN(C(=O)CNC(=O)CNC(=O)CN2CCCC2=O)CC1
Second: CCOC(=O)CC(c1ccccc1)c1ccc(N2CCN(CCC3CCN(C(=O)OC(C)(C)C)CC3)C2=O)cc1 (centres undefined)
The melting point of the first is higher: 225 to 227 °C for the first, 100 to 102 °C for the second.

Compared with Fc1ccc(F)c(N=C2CCCc3cc4c(nc32)C(=Nc2c(F)cccc2F)CCC4)c1, Clc1ccc(N2CCN(CCCc3c4c(nn3-c3ccc(Cl)cc3)CCCC4)CC2)cc1 is lower in melting point: 145 to 150 °C for the first, 129 to 131 °C for the second.

First: CCON=C1CN(c2c(F)c(N)c3c(=O)c(C(=O)O)cn(C4CC4)c3c2F)CC12CN(C(=O)OC(C)(C)C)C2
Second: Cc1c(N2CC(F)C(C3(N)CCC3)C2)c(F)c(N)c2c(=O)c(C(=O)O)cn(C3CC3F)c12 (centres undefined)
The melting point of the first is higher: 235 to 236 °C for the first, 177 to 184 °C for the second.

Compared with Cc1c(N2C[C@H](CF)[C@](C)(N)C2)c(F)cc2c(=O)c(C(=O)O)cn([C@@H]3C[C@@H]3F)c12, CCn1cc(C(=O)O)c(=O)c2cc(F)c(N3CCOC(CCl)C3)c(F)c21 (centres undefined) is higher in melting point: 135 to 137 °C for the first, 212 to 215 °C for the second.

Compared with O=[N+]([O-])c1ccc(C=Nc2c3c(nc4ccccc24)CCCC3)cc1, COc1ccc(-c2cc3ccccc3[nH]2)cc1NCc1ccc(O)c([N+](=O)[O-])c1 is lower in melting point: 237 to 238 °C for the first, 165 to 166 °C for the second.

Compared with Cc1noc(C)c1NC(=O)c1ccc(OC(F)F)c2oc(C3CCOC3)cc12 (centres undefined), COc1ccc(CC(=O)NC(NC(=NC#N)Nc2cc(F)ccc2F)C(C)(C)C)cc1OC (centres undefined) is higher in melting point: 156 °C for the first, 190 to 191 °C for the second.

First: CC1(C)N=C(c2ccc(N)cc2)CC1c1ccncc1 (centres undefined)
Second: COCCN(C)CCc1c(-c2ccc(N)cc2)sc2c1c(=O)n(-c1ccc3c(c1)OCO3)c(=O)n2Cc1c(F)cccc1F
The melting point of the first is lower: 175 to 178 °C for the first, 200 to 202 °C for the second.

Compared with CN1CC(CCCl)Sc2ncccc2C1=S (centres undefined), COc1ccc(-c2ccco2)c2c1c(CCN(C)C)cn2C is lower in melting point: 160 to 162 °C for the first, 90 to 93 °C for the second.

First: CCC(C)(C)C(=O)NNc1cc(NC(=O)CC(C)(C)C)cc(NC(=O)CC(C)(C)C)c1
Second: COC(=O)c1c(C(=O)O)c(O)c2cc(OC)c(OC)c(OC)c2c1-c1cc(OC)c(OC)c(OC)c1
The melting point of the first is higher: 332 to 334 °C for the first, 167 to 171 °C for the second.

First: CCCn1cnc(C(N)=O)c1N
Second: O=S(=O)(NCCCCOc1ccc(-n2cnnn2)cc1)c1ccc(Br)cc1
The melting point of the first is higher: 241 to 243 °C for the first, 109 to 110 °C for the second.

Compared with CC(C)(C1OCCO1)C(O)C(Cc1ccc(Cl)cc1Cl)n1cncn1 (centres undefined), O=C(O)CCCN1CCc2ccc(S(=O)(=O)Nc3ccc(Cl)cc3)cc2C1 is higher in melting point: 178 to 181 °C for the first, 210 °C for the second.

First: FC(F)(F)CN1CCOC(CN2c3ccccc3C=Cc3ccccc32)C1 (centres undefined)
Second: CN1C(=O)CC[C@]2(C)c3ccc(-c4ccc([N+](=O)[O-])s4)cc3CC[C@@H]12
The melting point of the first is lower: 97 to 98 °C for the first, 147 to 149 °C for the second.

Compared with CCOC(=O)C1=C(COc2cccnc2)NC(COc2cccnc2)=C(C(=O)OCC)C1c1cccc([N+](=O)[O-])c1, C=CCC=CCC=CCCCCCCCc1cccc(O)c1 is lower in melting point: 206 to 208 °C for the first, 60 °C for the second.

For CC(=O)O[C@H]1C=C(Br)C(=O)[C@@H]2O[C@H]12, the melting point was 93 to 94 °C.
